From patent publication US20090169538A1, “Methods of Treating or Preventing Tissue Damage Caused by Increased Blood Flow” (REGENERX BIOPHARMACEUTICALS, INC., priority 2006, published 2009)

Tested on: embryonic heart explants
Assay type: cell-based
Conditions: explants in presence of thymosin β4 with 100 nM wortmanin, p<0.05
Source text: To test the effects of secreted thymosin β4 on cardiac cell migration, an embryonic heart explant system designed to assay cell migration and transformation events on a three-dimensional collagen gel was utilized. In this assay, explants of adjacent embryonic myocardium and endocardium from valve-forming regions were placed on a collagen gel with the endocardium adjacent to the collagen.
Outflow tract was dissected from E11.5 wild type mouse embryos and placed on collagen matrices as previously described. After 10 hours of attachment explants were incubated in 30 ng/300 μl thymosin β4 in PBS, PBS alone or thymosin β4 and 100 nM wortmanin. Cultures were carried out for 3-9 days at 37° C. 5% CO2 and fixed in 4% paraformaldehyde in PBS for 10 min at RT. Cells were counted for quantification of migration and distance using at least three separate explants under each condition for endothelial migration and eight separate explants for myocardial migration.
Paraformaldehyde-fixed explants were permeabilized for 10 min at RT with Permeabilize solution (10 mM PIPES pH6.8; 50 mMNaCl; 0.5% Triton X-100; 300 mM Sucrose; 3 mM MgCl2) and rinsed with PBS 2×5 min at RT. After a series of blocking and rinsing steps, detection antibodies were used and explants rinsed and incubated with Equilibration buffer (Anti-Fade kit) 10 min at room temperature. Explants were scooped to a glass microscope slide, covered, and examined by fluorescein microscopy. TUNEL assay was performed using ApopTag Plus Fluorescein In Situ Apoptosis detection kit (Intergen Company # S7111) as recommended.

Q: With `COC[C@H]1OC(=O)c2coc3c2[C@@]1(C)C1=C(C3=O)[C@@H]2CCC(=O)[C@@]2(C)C[C@H]1OC(C)=O` [wortmanin, reference compound] as the molecule, how does the “beating frequency upon inhibition of ILK” value read?
A: The value was “significant reduction”.

Q: And the “myocardial cell migration upon inhibition of ILK” value?
A: Its value is “significant reduction”.
